Experimental data reported in patent US12343326B2, “Psychoactive medicines and their use for treating psychiatric and neurological conditions and disorders” (Transcend Therapeutics, Inc., priority 2021, dated 2025).

Tests used:
Assay in all cases: β-arrestin based GPCR screen (PathHunter / GPCRmax), agonist mode
Assay type in all cases: cell-based
Set-up in all cases: host or cells: PathHunter cell lines
168 GPCRs [1] = target: 168 GPCRs (Homo sapiens, UniProt O43603)
Method: (§1) For agonist determination, cells were incubated with sample to induce response. […] Vehicle concentration was 1%.

168 GPCRs [2] = target: 168 GPCRs (Homo sapiens, UniProt P11229); details: CHRM1, Agonist
Method: as §1

168 GPCRs [3] = target: 168 GPCRs (Homo sapiens, UniProt P20309); details: CHRM3, Agonist
Method: as §1

168 GPCRs [4] = target: 168 GPCRs (Homo sapiens, UniProt P21554)
Method: as §1

168 GPCRs [5] = target: 168 GPCRs (Homo sapiens, UniProt P25025)
168 GPCRs (Homo sapiens, UniProt P25025), sequence (P25025 whole entry): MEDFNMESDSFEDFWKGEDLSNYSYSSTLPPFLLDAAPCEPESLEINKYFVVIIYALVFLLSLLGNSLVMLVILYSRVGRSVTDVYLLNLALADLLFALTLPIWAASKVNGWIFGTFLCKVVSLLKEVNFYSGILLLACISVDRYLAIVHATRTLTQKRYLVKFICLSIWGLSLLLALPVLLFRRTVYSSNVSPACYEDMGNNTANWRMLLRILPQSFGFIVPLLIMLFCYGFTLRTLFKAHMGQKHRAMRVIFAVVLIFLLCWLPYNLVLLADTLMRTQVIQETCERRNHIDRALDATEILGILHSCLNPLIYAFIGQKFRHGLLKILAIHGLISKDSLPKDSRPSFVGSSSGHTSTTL
Method: as §1

168 GPCRs [6] = target: 168 GPCRs (Homo sapiens, UniProt P25116); details: F2R
168 GPCRs (Homo sapiens, UniProt P25116), sequence (P25116 22-425): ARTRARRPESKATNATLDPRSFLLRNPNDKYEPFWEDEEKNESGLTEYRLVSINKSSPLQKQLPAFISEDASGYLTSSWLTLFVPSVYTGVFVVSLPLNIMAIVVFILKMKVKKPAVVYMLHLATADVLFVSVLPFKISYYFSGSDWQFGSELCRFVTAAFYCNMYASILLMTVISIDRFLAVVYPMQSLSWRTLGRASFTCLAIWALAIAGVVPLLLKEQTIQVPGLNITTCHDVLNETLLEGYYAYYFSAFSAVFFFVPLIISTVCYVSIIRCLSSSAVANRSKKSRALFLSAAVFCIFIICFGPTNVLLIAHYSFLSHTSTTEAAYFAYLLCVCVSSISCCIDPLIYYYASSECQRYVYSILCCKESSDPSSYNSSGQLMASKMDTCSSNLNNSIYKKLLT
Method: as §1

168 GPCRs [7] = target: 168 GPCRs (Homo sapiens, UniProt P30518); details: AVPR2, Agonist
168 GPCRs (Homo sapiens, UniProt P30518), sequence (P30518 whole entry): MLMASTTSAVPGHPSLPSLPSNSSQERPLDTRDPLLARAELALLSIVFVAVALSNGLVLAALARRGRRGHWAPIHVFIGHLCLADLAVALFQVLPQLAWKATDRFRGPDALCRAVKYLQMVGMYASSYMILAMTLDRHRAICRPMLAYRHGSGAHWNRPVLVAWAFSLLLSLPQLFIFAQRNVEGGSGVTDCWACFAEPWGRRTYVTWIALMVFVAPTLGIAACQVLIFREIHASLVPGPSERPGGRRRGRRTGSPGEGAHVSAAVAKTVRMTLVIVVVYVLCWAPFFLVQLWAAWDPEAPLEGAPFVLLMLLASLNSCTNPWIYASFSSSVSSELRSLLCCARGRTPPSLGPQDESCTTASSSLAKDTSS
Method: as §1

168 GPCRs [8] = target: 168 GPCRs (Homo sapiens, UniProt P30550); details: GRPR
Method: as §1

168 GPCRs [9] = target: 168 GPCRs (Homo sapiens, UniProt P30559); details: OXTR
168 GPCRs (Homo sapiens, UniProt P30559), sequence (P30559 whole entry): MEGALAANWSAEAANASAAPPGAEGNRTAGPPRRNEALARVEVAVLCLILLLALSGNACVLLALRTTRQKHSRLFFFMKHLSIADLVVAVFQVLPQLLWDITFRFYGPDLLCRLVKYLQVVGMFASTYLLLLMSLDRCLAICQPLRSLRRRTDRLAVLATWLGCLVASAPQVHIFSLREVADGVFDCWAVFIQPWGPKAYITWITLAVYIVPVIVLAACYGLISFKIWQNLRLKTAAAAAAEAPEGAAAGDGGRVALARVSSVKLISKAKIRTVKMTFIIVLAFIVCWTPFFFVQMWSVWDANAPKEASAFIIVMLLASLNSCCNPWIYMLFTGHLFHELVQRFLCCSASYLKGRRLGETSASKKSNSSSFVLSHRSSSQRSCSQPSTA
Method: as §1

168 GPCRs [10] = target: 168 GPCRs (Homo sapiens, UniProt P32239); details: CCKBR, Agonist
168 GPCRs (Homo sapiens, UniProt P32239), sequence (P32239 whole entry): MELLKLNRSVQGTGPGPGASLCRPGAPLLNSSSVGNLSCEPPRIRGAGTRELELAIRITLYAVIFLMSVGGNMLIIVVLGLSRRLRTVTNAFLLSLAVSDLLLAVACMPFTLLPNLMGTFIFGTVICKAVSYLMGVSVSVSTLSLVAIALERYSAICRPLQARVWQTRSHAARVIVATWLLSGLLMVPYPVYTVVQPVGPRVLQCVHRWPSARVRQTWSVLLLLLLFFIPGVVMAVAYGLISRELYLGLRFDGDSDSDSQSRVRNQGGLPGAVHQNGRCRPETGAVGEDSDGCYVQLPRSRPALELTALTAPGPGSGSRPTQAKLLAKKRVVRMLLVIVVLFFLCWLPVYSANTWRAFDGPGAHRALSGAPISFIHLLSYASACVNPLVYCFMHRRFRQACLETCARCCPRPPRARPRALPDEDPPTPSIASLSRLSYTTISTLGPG
Method: as §1

168 GPCRs [11] = target: 168 GPCRs (Homo sapiens, UniProt P32245); details: MC4R
Method: as §1

168 GPCRs [12] = target: 168 GPCRs (Homo sapiens, UniProt P35462)
Method: as §1

168 GPCRs [13] = target: 168 GPCRs (Homo sapiens, UniProt P46663); details: BDKRB1, Agonist
168 GPCRs (Homo sapiens, UniProt P46663), sequence (P46663 whole entry): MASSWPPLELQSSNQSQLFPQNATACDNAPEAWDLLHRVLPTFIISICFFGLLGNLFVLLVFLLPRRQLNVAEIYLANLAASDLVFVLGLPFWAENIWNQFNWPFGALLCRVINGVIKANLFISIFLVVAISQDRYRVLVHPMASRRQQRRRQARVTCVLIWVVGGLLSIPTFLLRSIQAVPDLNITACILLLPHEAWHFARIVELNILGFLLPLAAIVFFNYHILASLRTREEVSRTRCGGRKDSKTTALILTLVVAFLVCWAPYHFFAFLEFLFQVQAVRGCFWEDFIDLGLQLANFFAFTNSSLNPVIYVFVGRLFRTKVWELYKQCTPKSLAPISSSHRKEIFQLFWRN
Method: as §1

168 GPCRs [14] = target: 168 GPCRs (Homo sapiens, UniProt P47901); details: AVPR1B, Agonist
168 GPCRs (Homo sapiens, UniProt P47901), sequence (P47901 whole entry): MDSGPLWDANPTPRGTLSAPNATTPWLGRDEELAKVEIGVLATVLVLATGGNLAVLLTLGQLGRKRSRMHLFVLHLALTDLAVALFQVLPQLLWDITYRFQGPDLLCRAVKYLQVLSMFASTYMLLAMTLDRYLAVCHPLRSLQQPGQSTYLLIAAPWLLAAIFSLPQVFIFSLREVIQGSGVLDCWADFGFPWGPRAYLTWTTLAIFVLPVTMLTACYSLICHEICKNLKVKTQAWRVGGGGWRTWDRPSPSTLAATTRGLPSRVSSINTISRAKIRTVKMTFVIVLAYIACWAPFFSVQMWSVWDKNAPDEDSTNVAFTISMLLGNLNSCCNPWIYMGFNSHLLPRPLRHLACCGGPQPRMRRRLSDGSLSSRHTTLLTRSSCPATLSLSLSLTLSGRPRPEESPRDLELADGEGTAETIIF
Method: as §1

168 GPCRs [15] = target: 168 GPCRs (Homo sapiens, UniProt P48039); details: MTNR1A
168 GPCRs (Homo sapiens, UniProt P48039), sequence (P48039 whole entry): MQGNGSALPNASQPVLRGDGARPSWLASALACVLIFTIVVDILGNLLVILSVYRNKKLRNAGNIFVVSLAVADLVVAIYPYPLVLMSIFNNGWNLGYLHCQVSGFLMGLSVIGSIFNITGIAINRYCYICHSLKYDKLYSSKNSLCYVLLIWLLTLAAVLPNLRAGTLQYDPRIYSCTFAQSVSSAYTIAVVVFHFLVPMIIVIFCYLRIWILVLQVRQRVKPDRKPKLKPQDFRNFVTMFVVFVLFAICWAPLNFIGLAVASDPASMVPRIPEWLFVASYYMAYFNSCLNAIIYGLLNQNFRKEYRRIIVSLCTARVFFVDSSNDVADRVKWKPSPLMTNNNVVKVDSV
Method: as §1

168 GPCRs [16] = target: 168 GPCRs (Homo sapiens, UniProt P48146)
Method: as §1

168 GPCRs [17] = target: 168 GPCRs (Homo sapiens, UniProt P49682)
Method: as §1

168 GPCRs [18] = target: 168 GPCRs (Homo sapiens, UniProt P51684); details: CCR6, Agonist
168 GPCRs (Homo sapiens, UniProt P51684), sequence (P51684 whole entry): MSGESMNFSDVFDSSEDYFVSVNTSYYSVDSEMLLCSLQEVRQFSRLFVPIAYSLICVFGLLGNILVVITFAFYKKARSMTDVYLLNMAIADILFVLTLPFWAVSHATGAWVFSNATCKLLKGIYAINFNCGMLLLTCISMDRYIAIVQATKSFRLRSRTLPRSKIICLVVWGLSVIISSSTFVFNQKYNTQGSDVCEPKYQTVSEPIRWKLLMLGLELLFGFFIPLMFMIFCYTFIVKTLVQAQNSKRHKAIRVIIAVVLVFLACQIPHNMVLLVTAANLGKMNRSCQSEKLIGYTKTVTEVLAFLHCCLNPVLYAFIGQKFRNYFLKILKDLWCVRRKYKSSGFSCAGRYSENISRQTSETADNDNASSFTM
Method: as §1

168 GPCRs [19] = target: 168 GPCRs (Homo sapiens, UniProt P51686); details: CCR9, Agonist
Method: as §1

168 GPCRs [20] = target: 168 GPCRs (Homo sapiens, UniProt Q15722); details: LTB4R
Method: as §1

168 GPCRs [21] = target: 168 GPCRs (Homo sapiens, UniProt Q96LB1)
168 GPCRs (Homo sapiens, UniProt Q96LB1), sequence (Q96LB1 whole entry): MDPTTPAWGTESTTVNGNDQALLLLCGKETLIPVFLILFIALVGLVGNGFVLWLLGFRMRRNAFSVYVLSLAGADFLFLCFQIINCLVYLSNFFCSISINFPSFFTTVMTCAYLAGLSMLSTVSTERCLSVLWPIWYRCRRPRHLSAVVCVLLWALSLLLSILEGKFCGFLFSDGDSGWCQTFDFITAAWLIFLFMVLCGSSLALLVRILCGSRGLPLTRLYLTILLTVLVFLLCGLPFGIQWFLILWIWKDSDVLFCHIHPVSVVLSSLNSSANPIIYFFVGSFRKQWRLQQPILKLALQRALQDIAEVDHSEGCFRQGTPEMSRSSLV
Method: as §1

168 GPCRs [22] = target: 168 GPCRs (Homo sapiens, UniProt Q99788); details: CMKLR1, Agonist
168 GPCRs (Homo sapiens, UniProt Q99788), sequence (Q99788 whole entry): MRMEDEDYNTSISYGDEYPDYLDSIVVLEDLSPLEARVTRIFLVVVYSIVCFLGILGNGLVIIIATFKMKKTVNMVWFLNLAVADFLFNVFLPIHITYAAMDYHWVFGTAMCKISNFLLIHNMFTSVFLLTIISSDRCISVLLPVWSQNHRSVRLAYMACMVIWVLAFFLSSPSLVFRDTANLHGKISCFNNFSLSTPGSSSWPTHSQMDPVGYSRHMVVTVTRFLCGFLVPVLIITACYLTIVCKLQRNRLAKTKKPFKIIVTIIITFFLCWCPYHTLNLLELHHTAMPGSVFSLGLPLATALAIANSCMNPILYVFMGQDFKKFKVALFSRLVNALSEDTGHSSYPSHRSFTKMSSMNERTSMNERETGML
Method: as §1

168 GPCRs [23] = target: 168 GPCRs (Homo sapiens, UniProt Q9HB89); details: NMU1R
168 GPCRs (Homo sapiens, UniProt Q9HB89), sequence (Q9HB89 whole entry): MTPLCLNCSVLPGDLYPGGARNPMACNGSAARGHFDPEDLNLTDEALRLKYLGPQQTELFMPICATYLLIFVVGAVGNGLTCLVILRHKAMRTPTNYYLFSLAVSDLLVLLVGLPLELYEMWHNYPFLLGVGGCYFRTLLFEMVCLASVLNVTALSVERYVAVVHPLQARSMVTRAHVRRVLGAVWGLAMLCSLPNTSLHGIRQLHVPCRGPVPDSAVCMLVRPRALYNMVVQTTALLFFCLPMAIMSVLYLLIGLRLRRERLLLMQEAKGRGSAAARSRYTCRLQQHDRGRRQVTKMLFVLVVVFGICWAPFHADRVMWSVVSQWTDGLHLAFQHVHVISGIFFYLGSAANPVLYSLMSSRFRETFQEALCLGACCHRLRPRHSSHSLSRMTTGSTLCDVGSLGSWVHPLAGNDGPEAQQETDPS
Method: as §1

In the case of `CNC(C)C(=O)c1ccc2c(c1)OCO2` (stereo not shown) [methylone, 3,4-methylenedioxy-N-methylcathinone], the activity at 10 µM (168 GPCRs [1]; GALR2, Agonist mode, 10 uM) was 1.9%, the activity at 1 µM (168 GPCRs [1]; GALR2, Agonist, 1 uM) was 3.4% and the activity at 1 µM (168 GPCRs [2]; 1 uM) was -9.1%. The activity at 10 µM (168 GPCRs [2]; 10 uM) was 8.5%, the activity at 1 µM (168 GPCRs [3]; 1 uM) was 6% and the activity at 10 µM (168 GPCRs [3]; 10 uM) was 6%. For the same compound, the activity at 10 µM (168 GPCRs [4]; CNR1, Agonist mode, 10 uM) was -2.7%, the activity at 1 µM (168 GPCRs [4]; CNR1, Agonist, 1 uM) was -0.4% and the activity at 10 µM (168 GPCRs [5]; CXCR2, Agonist mode, 10 uM) was 2.6%. It also gave an activity at 1 µM (168 GPCRs [5]; CXCR2, Agonist, 1 uM) of -0.2%, an activity at 10 µM (168 GPCRs [6]; Agonist mode, 10 uM) of 0.2% and an activity at 1 µM (168 GPCRs [6]; Agonist, 1 uM) of 2.5%. For the same compound, the activity at 1 µM (168 GPCRs [7]; 1 uM) was -0.9%, the activity at 10 µM (168 GPCRs [7]; 10 uM) was 1% and the activity at 10 µM (168 GPCRs [8]; Agonist mode, 10 uM) was -0.1%. It also gave an activity at 1 µM (168 GPCRs [8]; Agonist, 1 uM) of 0%, an activity at 10 µM (168 GPCRs [9]; Agonist mode, 10 uM) of -0.5% and an activity at 1 µM (168 GPCRs [9]; Agonist, 1 uM) of -0.6%. For the same compound, the activity at 1 µM (168 GPCRs [10]; 1 uM) was -1%, the activity at 10 µM (168 GPCRs [10]; 10 uM) was 1.5% and the activity at 10 µM (168 GPCRs [11]; Agonist mode, 10 uM) was -1.1%. It also gave an activity at 1 µM (168 GPCRs [11]; Agonist, 1 uM) of -1.4%, an activity at 10 µM (168 GPCRs [12]; DRD3, Agonist mode, 10 uM) of 2.3% and an activity at 1 µM (168 GPCRs [12]; DRD3, Agonist, 1 uM) of 2.2%. For the same compound, the activity at 1 µM (168 GPCRs [13]; 1 uM) was -1.7%, the activity at 10 µM (168 GPCRs [13]; 10 uM) was -2.5% and the activity at 1 µM (168 GPCRs [14]; 1 uM) was -1.2%. It also gave an activity at 10 µM (168 GPCRs [14]; 10 uM) of -1.1%, an activity at 10 µM (168 GPCRs [15]; Agonist mode, 10 uM) of -11.7% and an activity at 1 µM (168 GPCRs [15]; Agonist, 1 uM) of -12.3%. It also gave an activity at 10 µM (168 GPCRs [16]; NPBWR2, Agonist mode, 10 uM) of 1.35%, an activity at 1 µM (168 GPCRs [16]; NPBWR2, Agonist, 1 uM) of -0.3% and an activity at 10 µM (168 GPCRs [17]; CXCR3, Agonist mode, 10 uM) of 1.6%. For the same compound, the activity at 1 µM (168 GPCRs [17]; CXCR3, Agonist, 1 uM) was -0.2%, the activity at 1 µM (168 GPCRs [18]; 1 uM) was -2.9% and the activity at 10 µM (168 GPCRs [18]; 10 uM) was -3.3%. The activity at 1 µM (168 GPCRs [19]; 1 uM) was -0.5%, the activity at 10 µM (168 GPCRs [19]; 10 uM) was 0.2% and the activity at 10 µM (168 GPCRs [20]; Agonist mode, 10 uM) was -0.8%. It also gave an activity at 1 µM (168 GPCRs [20]; Agonist, 1 uM) of -0.3%, an activity at 10 µM (168 GPCRs [21]; MRGPRX2, Agonist mode, 10 uM) of 0.73% and an activity at 1 µM (168 GPCRs [21]; MRGPRX2, Agonist, 1 uM) of 1.4%. The activity at 1 µM (168 GPCRs [22]; 1 uM) was -0.2%, the activity at 10 µM (168 GPCRs [22]; 10 uM) was -0.3% and the activity at 10 µM (168 GPCRs [23]; Agonist mode, 10 uM) was 2%. For the same compound, the activity at 1 µM (168 GPCRs [23]; Agonist, 1 uM) was 1.3%.
